Measurements as given in US4471131A, “Novel silyl esters of N-phosphonomethylglycine” (Monsanto Company, priority 1983, dated 1984).

Experiments:
Assay in all cases: post-emergence herbicidal activity, greenhouse
Type in all cases: in vivo
Wild Buckwheat = conditions: Table III; 2 WAT; 1.1 kg/h
Source text: (§1) A good grade of top soil is placed in aluminum pans having holes in the bottom and compacted to a depth of 0.95 to 1.27 cm. from the top of the pan. A predetermined number of seeds of each of several dicotyledonous and moncotyledonous annual plant species and/or vegetative propagules for the perennial plant species were placed on the soil and pressed into the soil surface. The seeds and/or vegetative propagules are covered with soil and leveled. The pans are then placed on a sand bench in the greenhouse and watered from below as needed. After the plants reach the desired age (two to three weeks), each pan, except for the control pans, is removed individually to a spraying chamber and sprayed by means of an atomizer at the rates noted. In the spray solution is an amount of an emulsifying agent mixture to give a spray solution or suspension which contains about 0.4% by weight of the emulsifier. The spray solution or suspension contains a sufficient amount of the candidate chemical in order to give application rates corresponding to those set forth in the tables. The pans were returned to the greenhouse and watered as before and the injury to the plants as compared to the control is observed at approximately two and four weeks and the results recorded. In the tables, WAT means "weeks after treatment."
(§2) The post-emergent herbicidal activity index used in Tables II and III is as follows:
(§3) The plant species utilized in these tests are identified by letter in accordance with the following legend: […]

Velvetleaf = tested on: Velvetleaf
Source text: as §1, §2, §3

Panicum Spp = conditions: Table III; 2 WAT; 1.1 kg/h
Source text: as §1, §2, §3

Cocklebur = tested on: Cocklebur
Source text: as §1, §2, §3

Common Lambsquarters = tested on: Common Lambsquarters
Source text: as §1, §2, §3

Hemp Sesbania = conditions: Table III; 2 WAT; 1.1 kg/h
Source text: as §1, §2, §3

Yellow Nutsedge = conditions: Table II
Source text: as §1, §2, §3

Canada Thistle = conditions: Table II
Source text: as §1, §2, §3

Large Crabgrass = conditions: Table III; 2 WAT; 1.1 kg/h
Source text: as §1, §2, §3

Quackgrass = conditions: Table II
Source text: as §1, §2, §3

Downy Brome = tested on: Downy Brome
Source text: as §1, §2, §3

Sugar Beet = conditions: Table III; 2 WAT; 1.1 kg/h
Source text: as §1, §2, §3

Morningglory = tested on: Morningglory
Source text: as §1, §2, §3

Barnyardgrass = tested on: Barnyardgrass
Source text: as §1, §2, §3

Soybean = conditions: Table III; 2 WAT; 1.1 kg/h
Source text: as §1, §2, §3

Johnsongrass = conditions: Table II
Source text: as §1, §2, §3

Rice = conditions: Table III; 2 WAT; 1.1 kg/h
Source text: as §1, §2, §3

Pennsylvania Smartweed = conditions: Table II
Source text: as §1, §2, §3

[1] = Table II, 2 WAT, 5.6 kg/h, formulated in anhydrous tetrahydrofuran
[2] = Table II, 2 WAT, 11.2 kg/h, formulated in anhydrous tetrahydrofuran
[3] = Table II, 4 WAT, 5.6 kg/h, formulated in anhydrous tetrahydrofuran
[4] = Table II, 4 WAT, 11.2 kg/h, formulated in anhydrous tetrahydrofuran
[5] = 2 WAT, 5.6 kg/h, formulated in anhydrous tetrahydrofuran
[6] = 2 WAT, 11.2 kg/h, formulated in anhydrous tetrahydrofuran
[7] = 4 WAT, 5.6 kg/h, formulated in anhydrous tetrahydrofuran
[8] = 4 WAT, 11.2 kg/h, formulated in anhydrous tetrahydrofuran

Compound: CC(C)(C)[Si](OP(=O)(O)CNCC(=O)OCCCl)(c1ccccc1)c1ccccc1 [Ex. 8, Glycine, N--((([(1,1-Dimethylethyl)Diphenylsilyl]oxy)Hydroxyphosphinyl)Methyl)-,2-Chloroethyl Ester Hydrate]
- Plant Response Index (Q) (Wild Buckwheat): 0 (0-24% inhibition)
- Plant Response Index (C) (Velvetleaf; Table II, 2 WAT, 5.6 kg/h): 1 (25-49% inhibition)
- Plant Response Index (C) (Velvetleaf; Table II, 2 WAT, 11.2 kg/h): 3 (75-99% inhibition)
- Plant Response Index (C) (Velvetleaf; Table II, 4 WAT, 5.6 kg/h): 1 (25-49% inhibition)
- Plant Response Index (C) (Velvetleaf; Table II, 4 WAT, 11.2 kg/h): 3 (75-99% inhibition)
- Plant Response Index (C) (Velvetleaf; Table III, 2 WAT, 1.1 kg/h): 0 (0-24% inhibition)
- Plant Response Index (S) (Panicum Spp): 1 (25-49% inhibition)
- Plant Response Index (B) (Cocklebur; Table II, 2 WAT, 5.6 kg/h): 2 (50-74% inhibition)
- Plant Response Index (B) (Cocklebur; Table II, 2 WAT, 11.2 kg/h): 3 (75-99% inhibition)
- Plant Response Index (B) (Cocklebur; Table II, 4 WAT, 5.6 kg/h): 3 (75-99% inhibition)
- Plant Response Index (B) (Cocklebur; Table II, 4 WAT, 11.2 kg/h): 3 (75-99% inhibition)
- Plant Response Index (B) (Cocklebur; Table III, 2 WAT, 1.1 kg/h): 0 (0-24% inhibition)
- Plant Response Index (E) (Common Lambsquarters; Table II, 2 WAT, 5.6 kg/h): 2 (50-74% inhibition)
- Plant Response Index (E) (Common Lambsquarters; Table II, 2 WAT, 11.2 kg/h): 1 (25-49% inhibition)
- Plant Response Index (E) (Common Lambsquarters; Table II, 4 WAT, 5.6 kg/h): 2 (50-74% inhibition)
- Plant Response Index (E) (Common Lambsquarters; Table II, 4 WAT, 11.2 kg/h): 1 (25-49% inhibition)
- Plant Response Index (E) (Common Lambsquarters; Table III, 2 WAT, 1.1 kg/h): 3 (75-99% inhibition)
- Plant Response Index (R) (Hemp Sesbania): 1 (25-49% inhibition)
- Plant Response Index (G) (Yellow Nutsedge; 2 WAT, 5.6 kg/h): 2 (50-74% inhibition)
- Plant Response Index (G) (Yellow Nutsedge; 2 WAT, 11.2 kg/h): 2 (50-74% inhibition)
- Plant Response Index (G) (Yellow Nutsedge; 4 WAT, 5.6 kg/h): 2 (50-74% inhibition)
- Plant Response Index (G) (Yellow Nutsedge; 4 WAT, 11.2 kg/h): 3 (75-99% inhibition)
- Plant Response Index (A) (Canada Thistle; 2 WAT, 5.6 kg/h): 2 (50-74% inhibition)
- Plant Response Index (A) (Canada Thistle; 2 WAT, 11.2 kg/h): 2 (50-74% inhibition)
- Plant Response Index (A) (Canada Thistle; 4 WAT, 5.6 kg/h): 4 (100% inhibition)
- Plant Response Index (A) (Canada Thistle; 4 WAT, 11.2 kg/h): 2 (50-74% inhibition)
- Plant Response Index (T) (Large Crabgrass): 2 (50-74% inhibition)
- Plant Response Index (H) (Quackgrass; 2 WAT, 5.6 kg/h): 3 (75-99% inhibition)
- Plant Response Index (H) (Quackgrass; 2 WAT, 11.2 kg/h): 2 (50-74% inhibition)
- Plant Response Index (H) (Quackgrass; 4 WAT, 5.6 kg/h): 4 (100% inhibition)
- Plant Response Index (H) (Quackgrass; 4 WAT, 11.2 kg/h): 3 (75-99% inhibition)
- Plant Response Index (J) (Downy Brome; Table II, 2 WAT, 5.6 kg/h): 1 (25-49% inhibition)
- Plant Response Index (J) (Downy Brome; Table II, 2 WAT, 11.2 kg/h): 2 (50-74% inhibition)
- Plant Response Index (J) (Downy Brome; Table II, 4 WAT, 5.6 kg/h): 1 (25-49% inhibition)
- Plant Response Index (J) (Downy Brome; Table II, 4 WAT, 11.2 kg/h): 3 (75-99% inhibition)
- Plant Response Index (J) (Downy Brome; Table III, 2 WAT, 1.1 kg/h): 0 (0-24% inhibition)
- Plant Response Index (M) (Sugar Beet): 0 (0-24% inhibition)
- Plant Response Index (D) (Morningglory; Table II, 2 WAT, 5.6 kg/h): 2 (50-74% inhibition)
- Plant Response Index (D) (Morningglory; Table II, 2 WAT, 11.2 kg/h): 2 (50-74% inhibition)
- Plant Response Index (D) (Morningglory; Table II, 4 WAT, 5.6 kg/h): 2 (50-74% inhibition)
- Plant Response Index (D) (Morningglory; Table II, 4 WAT, 11.2 kg/h): 2 (50-74% inhibition)
- Plant Response Index (D) (Morningglory; Table III, 2 WAT, 1.1 kg/h): 0 (0-24% inhibition)
- Plant Response Index (K) (Barnyardgrass; Table II, 2 WAT, 5.6 kg/h): 3 (75-99% inhibition)
- Plant Response Index (K) (Barnyardgrass; Table II, 2 WAT, 11.2 kg/h): 2 (50-74% inhibition)
- Plant Response Index (K) (Barnyardgrass; Table II, 4 WAT, 5.6 kg/h): 4 (100% inhibition)
- Plant Response Index (K) (Barnyardgrass; Table II, 4 WAT, 11.2 kg/h): 3 (75-99% inhibition)
- Plant Response Index (K) (Barnyardgrass; Table III, 2 WAT, 1.1 kg/h): 1 (25-49% inhibition)
- Plant Response Index (L) (Soybean): 0 (0-24% inhibition)
- Plant Response Index (I) (Johnsongrass; 2 WAT, 5.6 kg/h): 0 (0-24% inhibition)
- Plant Response Index (I) (Johnsongrass; 2 WAT, 11.2 kg/h): 1 (25-49% inhibition)
- Plant Response Index (I) (Johnsongrass; 4 WAT, 5.6 kg/h): 2 (50-74% inhibition)
- Plant Response Index (I) (Johnsongrass; 4 WAT, 11.2 kg/h): 2 (50-74% inhibition)
- Plant Response Index (O) (Rice): 0 (0-24% inhibition)
- Plant Response Index (F) (Pennsylvania Smartweed; 2 WAT, 5.6 kg/h): 3 (75-99% inhibition)
- Plant Response Index (F) (Pennsylvania Smartweed; 2 WAT, 11.2 kg/h): 2 (50-74% inhibition)
- Plant Response Index (F) (Pennsylvania Smartweed; 4 WAT, 5.6 kg/h): 4 (100% inhibition)
- Plant Response Index (F) (Pennsylvania Smartweed; 4 WAT, 11.2 kg/h): 4 (100% inhibition)

Compound: Glycine, N-((Bis[((1,1-Dimethylethyl)Diphenylsilyl)oxy]-Phosphinyl)-Methyl)-, [(1,1-Dimethylethyl)Diphenylsilyl]Ester, (75%); Silanol, (1,1-Dimethylethyl)Diphenyl-, (25%-Mixture) [Ex. 4]
- Plant Response Index (C) (Velvetleaf; [1]): 0 (0-24% inhibition)
- Plant Response Index (C) (Velvetleaf; [2]): 1 (25-49% inhibition)
- Plant Response Index (C) (Velvetleaf; [3]): 0 (0-24% inhibition)
- Plant Response Index (C) (Velvetleaf; [4]): 1 (25-49% inhibition)
- Plant Response Index (B) (Cocklebur; [1]): 1 (25-49% inhibition)
- Plant Response Index (B) (Cocklebur; [2]): 2 (50-74% inhibition)
- Plant Response Index (B) (Cocklebur; [3]): 1 (25-49% inhibition)
- Plant Response Index (B) (Cocklebur; [4]): 2 (50-74% inhibition)
- Plant Response Index (E) (Common Lambsquarters; [1]): 0 (0-24% inhibition)
- Plant Response Index (E) (Common Lambsquarters; [2]): 2 (50-74% inhibition)
- Plant Response Index (E) (Common Lambsquarters; [3]): 0 (0-24% inhibition)
- Plant Response Index (E) (Common Lambsquarters; [4]): 3 (75-99% inhibition)
- Plant Response Index (G) (Yellow Nutsedge; [5]): 0 (0-24% inhibition)
- Plant Response Index (G) (Yellow Nutsedge; [6]): 0 (0-24% inhibition)
- Plant Response Index (G) (Yellow Nutsedge; [7]): 1 (25-49% inhibition)
- Plant Response Index (G) (Yellow Nutsedge; [8]): 2 (50-74% inhibition)
- Plant Response Index (A) (Canada Thistle; [5]): 0 (0-24% inhibition)
- Plant Response Index (A) (Canada Thistle; [6]): 2 (50-74% inhibition)
- Plant Response Index (A) (Canada Thistle; [7]): 0 (0-24% inhibition)
- Plant Response Index (A) (Canada Thistle; [8]): 2 (50-74% inhibition)
- Plant Response Index (H) (Quackgrass; [5]): 0 (0-24% inhibition)
- Plant Response Index (H) (Quackgrass; [6]): 1 (25-49% inhibition)
- Plant Response Index (H) (Quackgrass; [7]): 0 (0-24% inhibition)
- Plant Response Index (H) (Quackgrass; [8]): 2 (50-74% inhibition)
- Plant Response Index (J) (Downy Brome; [1]): 0 (0-24% inhibition)
- Plant Response Index (J) (Downy Brome; [2]): 0 (0-24% inhibition)
- Plant Response Index (J) (Downy Brome; [3]): 0 (0-24% inhibition)
- Plant Response Index (J) (Downy Brome; [4]): 0 (0-24% inhibition)
- Plant Response Index (D) (Morningglory; [1]): 1 (25-49% inhibition)
- Plant Response Index (D) (Morningglory; [2]): 2 (50-74% inhibition)
- Plant Response Index (D) (Morningglory; [3]): 1 (25-49% inhibition)
- Plant Response Index (D) (Morningglory; [4]): 2 (50-74% inhibition)
- Plant Response Index (K) (Barnyardgrass; [1]): 1 (25-49% inhibition)
- Plant Response Index (K) (Barnyardgrass; [2]): 1 (25-49% inhibition)
- Plant Response Index (K) (Barnyardgrass; [3]): 1 (25-49% inhibition)
- Plant Response Index (K) (Barnyardgrass; [4]): 1 (25-49% inhibition)
- Plant Response Index (I) (Johnsongrass; [5]): 0 (0-24% inhibition)
- Plant Response Index (I) (Johnsongrass; [6]): 0 (0-24% inhibition)
- Plant Response Index (I) (Johnsongrass; [7]): 0 (0-24% inhibition)
- Plant Response Index (I) (Johnsongrass; [8]): 1 (25-49% inhibition)
- Plant Response Index (F) (Pennsylvania Smartweed; [5]): 1 (25-49% inhibition)
- Plant Response Index (F) (Pennsylvania Smartweed; [6]): 2 (50-74% inhibition)
- Plant Response Index (F) (Pennsylvania Smartweed; [7]): 0 (0-24% inhibition)
- Plant Response Index (F) (Pennsylvania Smartweed; [8]): 2 (50-74% inhibition)
